{"source": "paper PMC3176332", "about": "(European journal of medicinal chemistry, 2009)", "origin": "cited, not measured here", "system": "ERβ", "details": "relative to estradiol"}
{"smiles": "O=c1c(-c2ccc(O)cc2)coc2cc(O)cc(O)c12", "note": "[compound 2, genistein]", "values": [{"measurement": "ERβ binding selectivity", "value": 20, "unit": "fold"}]}
